Read-outs that look alike come from different tables or passages of the source.

Format in all cases: cell-based, human
Experiment [1] relates to IL-2-induced JAK1/JAK3 signal pathway. As to the kind of experiment: IL-2-induced proliferation of KHYG-1 cells (JAK1/JAK3 signal). Conditions: KHYG-1 cell proliferation, IL-2 10 ng/mL, 72 hours, read-out: Inhibition activity IC50 on IL-2-induced JAK1/JAK3 signal pathway. In short, it runs like this:
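Controls were wells lacking both compound and cytokine (0%) and compound-free IL-2 wells (100%). C50 was calculated from inhibition rates across doses.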

The subject of experiment [2] is IL-10-induced JAK1/TYK2 signal pathway. As to the kind of experiment: IL-10-induced JAK1/TYK2 signal pathway STAT3-Luc reporter gene assay in U2OS cells. Particulars: U2OS cells, STAT3-Luc reporter, IL-10 10 ng/mL, read-out: Half inhibition dose (IC50) on IL-10-induced JAK1/TYK2 signal pathway. The method in brief:
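Luciferase read-out (560 nm) corrected by GFP signal (Ex485/Em520) gives IL-10 pathway activity, and IC50 is derived from inhibition rates. Cells were U2OS transfected with IL-10R1 plus STAT3-Luc reporter, pretreated 6 h with 0.1–300 nM compound, then stimulated 24 h with IL-10 at 10 ng/mL.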

For experiment [3], the system named is EPO-induced JAK2 signal pathway. As to the kind of experiment: EPO-induced proliferation of UT-7 cells (JAK2 signal). Particulars: UT-7 cell proliferation, EPO 10 ng/mL, 72 hours, read-out: Inhibition activity IC50 on EPO-induced JAK2 signal pathway. The method in brief: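 […] was derived from inhibition rates across doses, scaled between wells lacking compound and cytokine (0) and EPO without compound (100), using alamarBlue fluorescence at Ex530/Em590. Compound (final 0-10000 nM) and 10 ng/mL EPO were given to UT-7 cells at 15000 per well for 72 h at 37° C.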

As to `CCONC(=O)c1cnc(NC(=O)C2CC2)cc1Nc1cccc(-c2ncc(F)cn2)c1OC` [Example 209, 6-(cyclopropylcarboxamido)-N-ethoxy-4-((3-(5-fluoropyrimidin-2-yl)-2-methoxyphenyl)amino)nicotinamide], the IC50 in experiment [1] (Homo sapiens) was more than 10 µM; in experiment [2] (Homo sapiens, U2OS), 0.00178 µM; in experiment [3] (Homo sapiens, UT7), more than 10 µM.
Take `CCONC(=O)c1cnc(NC(=O)C2CC2)cc1Nc1cc(F)cc(-c2ncc(F)cn2)c1OC` [Example 210, 6-(cyclopropylcarboxamido)-N-ethoxy-4-((5-fluoro-3-(5-fluoropyrimidin-2-yl)-2-methoxyphenyl)amino)nicotinamide]: the IC50 in experiment [1] (Homo sapiens) was more than 10 µM; in experiment [2] (Homo sapiens, U2OS) it was 0.000958 µM; in experiment [3] (Homo sapiens, UT7), more than 10 µM.
`CCONC(=O)c1cnc(Nc2cccc(C)n2)cc1Nc1ccc(C2CC2)cc1N(C)S(C)(=O)=O` [Example 217, 4-((4-cyclopropyl-2-(N-methylmethanesulfonamido)phenyl)amino)-N-ethoxy-6-((6-methylpyridin-2-yl)amino)nicotinamide]: the IC50 in experiment [1] was more than 10 µM; in experiment [2] it was 0.00105 µM; in experiment [3], more than 10 µM.
Regarding `CCONC(=O)c1cnc(Nc2cc(C)nc(C)n2)cc1Nc1cccc(-c2ncc(Cl)cn2)c1OC` [Example 218, 4-((3-(5-chloropyrimidin-2-yl)-2-methoxyphenyl)amino)-6-((2,6-dimethylpyrimidin-4-yl)amino)-N-ethoxy nicotinamide], the IC50 in experiment [1] (Homo sapiens) is more than 10 µM; in experiment [2] (Homo sapiens) it was 0.000171 µM; in experiment [3] (Homo sapiens, UT7) it was more than 10 µM.
For the compound `CCONC(=O)c1cnc(Nc2cccc(C(F)(F)F)n2)cc1Nc1ccc(C2CC2)cc1N(C)S(C)(=O)=O` [Example 220, 4-((4-cyclopropyl-2-(N-methylmethanesulfonamido)phenyl)amino)-N-ethoxy-6-((6-(trifluoromethyl)pyridin-2-yl)amino)nicotinamide], the IC50 was more than 10 µM in experiment [1] (Homo sapiens); 0.00132 µM in experiment [2] (Homo sapiens, U2OS); more than 10 µM in experiment [3] (Homo sapiens, UT7).
Take `CCONC(=O)c1cnc(Nc2cccc(C)n2)cc1Nc1ccc(-c2ccnn2C)cc1OC` [Example 222, N-ethoxy-4-((2-methoxy-4-(1-methyl-1H-pyrazol-5-yl)phenyl)amino)-6-((6-methylpyridin-2-yl)amino)nicotinamide]: the IC50 in experiment [1] (Homo sapiens) was more than 10 µM; in experiment [2] (Homo sapiens, U2OS) it was 0.00109 µM; in experiment [3] (Homo sapiens, UT7), more than 10 µM.
As for `CCONC(=O)c1cnc(Nc2ccc(F)nc2C)cc1Nc1ccc(C2CC2)cc1N(C)S(C)(=O)=O` [Example 223, 4-((4-cyclopropyl-2-(N-methylmethanesulfonamido)phenyl)amino)-N-ethoxy-6-((6-fluoro-2-methylpyridin-3-yl)amino)nicotinamide], the IC50 in experiment [1] (Homo sapiens) is more than 10 µM; in experiment [2] (Homo sapiens, U2OS), 0.000172 µM; in experiment [3] (Homo sapiens, UT7) it was more than 10 µM.
As to `CCONC(=O)c1cnc(Nc2cccc(C)n2)cc1Nc1ccc(C2CC2)cc1N(C)S(C)(=O)=O` [Example 224, 4-((4-cyclopropyl-2-(N-methylmethanesulfonamido)phenyl)amino)-N-ethoxy-6-((6-methylpyridin-2-yl)amino)nicotinamide], the figures for the IC50 in experiment [1], in experiment [2] and in experiment [3] were more than 10 µM, 0.000177 µM and more than 10 µM, respectively.
In the case of `CCONC(=O)c1cnc(NC(=O)C2CC2)cc1Nc1cc(F)cc(-c2ncc(C)cn2)c1OC` [Example 226, 6-(cyclopropylcarboxamido)-N-ethoxy-4-((5-fluoro-2-(methoxy)-3-(5-methylpyrimidin-2-yl)phenyl)amino)nicotinamide], the IC50 in experiment [1] (Homo sapiens) is more than 10 µM; in experiment [2] (Homo sapiens, U2OS), 0.000538 µM; in experiment [3] (Homo sapiens, UT7) it was more than 10 µM.
Regarding `CCONC(=O)c1cnc(Nc2ccncn2)cc1Nc1cc(F)c(C(C)C)cc1N(C)S(C)(=O)=O` [Example 230, N-ethoxy-4-((5-fluoro-4-isopropyl-2-(N-methylmethanesulfonamido)phenyl)amino)-6-(pyrimidin-4-ylamino)nicotinamide], the IC50 in experiment [1] (Homo sapiens) is more than 10 µM; in experiment [2] (Homo sapiens, U2OS), 0.00085 µM; in experiment [3] (Homo sapiens, UT7) it was more than 10 µM.
On to `CCONC(=O)c1cnc(Nc2ncc(F)cc2F)cc1Nc1cc(F)cc(-c2ncc(F)cn2)c1OC` [Example 234, 6-((3,5-difluoropyridin-2-yl)amino)-N-ethoxy-4-((5-fluoro-3-(5-fluoropyrimidin-2-yl)-2-methoxyphenyl)amino)nicotinamide], for which the IC50 in experiment [1] (Homo sapiens) is more than 10 µM; in experiment [2] (Homo sapiens, U2OS), 0.000368 µM; in experiment [3] (Homo sapiens, UT7), more than 10 µM.
As for `CCONC(=O)c1cnc(Nc2cnc(F)c(C)c2)cc1Nc1ccc(C2CC2)cc1N(C)S(C)(=O)=O` [Example 235, 4-((4-cyclopropyl-2-(N-methylmethanesulfonamido)phenyl)amino)-N-ethoxy-6-((6-fluoro-5-methylpyridin-3-yl)amino)nicotinamide], the IC50 in experiment [1] (Homo sapiens) was more than 10 µM; in experiment [2] (Homo sapiens, U2OS), 0.000722 µM; in experiment [3] (Homo sapiens, UT7), more than 10 µM.
For the compound `CCONC(=O)c1cnc(Nc2cncc(F)c2)cc1Nc1ccc(C2CC2)cc1N(C)S(C)(=O)=O` [Example 236, 4-((4-cyclopropyl-2-(N-methylmethanesulfonamido)phenyl)amino)-N-ethoxy-6-((5-fluoropyridin-3-yl)amino)nicotinamide], the IC50 was more than 10 µM in experiment [1] (Homo sapiens); 0.000587 µM in experiment [2] (Homo sapiens, U2OS); more than 10 µM in experiment [3] (Homo sapiens, UT7).
For the compound `CCONC(=O)c1cnc(Nc2ccc(F)nc2)cc1Nc1ccc(C2CC2)cc1N(C)S(C)(=O)=O` [Example 237, 4-((4-cyclopropyl-2-(N-methylmethanesulfonamido)phenyl)amino)-N-ethoxy-6-((6-fluoropyridin-3-yl)amino)nicotinamide], the IC50 in experiment [1] (Homo sapiens) was more than 10 µM; in experiment [2] (Homo sapiens, U2OS), 0.000395 µM; in experiment [3] (Homo sapiens, UT7), more than 10 µM.
`CCONC(=O)c1cnc(NC(=O)C2CC2)cc1Nc1cccc(-c2ncc(C)cn2)c1OC` [Example 239, 6-(cyclopropylcarboxamido)-N-ethoxy-4-((2-methoxy-3-(5-methylpyrimidin-2-yl)phenyl)amino)nicotinamide]: the IC50 in experiment [1] (Homo sapiens) is more than 10 µM; in experiment [2] (Homo sapiens, U2OS), 0.000289 µM; in experiment [3] (Homo sapiens, UT7) it was more than 10 µM.
For the compound `CCONC(=O)c1cnc(Nc2ccnc(C)n2)cc1Nc1cccc(-c2ncc(C)cn2)c1OC` [Example 240, N-ethoxy-4-((2-methoxy-3-(5-methylpyrimidin-2-yl)phenyl)amino)-6-((2-methylpyrimidin-4-yl)amino)nicotinamide], the IC50 in experiment [1] (Homo sapiens) is more than 10 µM; in experiment [2] (Homo sapiens, U2OS), 0.000258 µM; in experiment [3] (Homo sapiens, UT7) it was more than 10 µM.
Consider `CCONC(=O)c1cnc(Nc2ncc(F)cc2F)cc1Nc1cccc(-c2ncccn2)c1OC` [Example 242, 6-((3,5-difluoropyridin-2-yl)amino)-N-ethoxy-4-((2-methoxy-3-(pyrimidin-2-yl)phenyl)amino)nicotinamide], for which the IC50 was more than 10 µM in experiment [1] (Homo sapiens); 0.00212 µM in experiment [2] (Homo sapiens); more than 10 µM in experiment [3] (Homo sapiens, UT7).
On to `CCONC(=O)c1cnc(Nc2ccnc(C)n2)cc1Nc1cccc(-c2ncc(F)cn2)c1OC` [Example 243, N-ethoxy-4-((3-(5-fluoropyrimidin-2-yl)-2-methoxyphenyl)amino)-6-((2-methylpyrimidin-4-yl)amino)nicotinamide], for which the IC50 is more than 10 µM in experiment [1] (Homo sapiens); 0.000507 µM in experiment [2] (Homo sapiens, U2OS); more than 10 µM in experiment [3] (Homo sapiens, UT7).
In the case of `CCONC(=O)c1cnc(Nc2ncc(F)cc2F)cc1Nc1cc(F)cc(-c2ncn(C3CC3)n2)c1OC` [Example 244, 4-((3-(1-cyclopropyl-1H-1,2,4-triazol-3-yl)-5-fluoro-2-methoxyphenyl)amino)-6-((3,5-difluoropyridin-2-yl)amino)-N-ethoxy nicotinamide], the IC50 in experiment [1] (Homo sapiens) is more than 10 µM; in experiment [2] (Homo sapiens, U2OS), 0.00258 µM; in experiment [3] (Homo sapiens, UT7), more than 10 µM.
Take `CCONC(=O)c1cnc(Nc2ccnc(C)n2)cc1Nc1cc(F)cc(-c2ncn(C3CC3)n2)c1OC` [Example 245, 4-((3-(1-cyclopropyl-1H-1,2,4-triazol-3-yl)-5-fluoro-2-methoxyphenyl)amino)-N-ethoxy-6-((2-methylpyrimidin-4-yl)amino)nicotinamide]: the IC50 is more than 10 µM in experiment [1] (Homo sapiens); 0.00192 µM in experiment [2] (Homo sapiens, U2OS); more than 10 µM in experiment [3] (Homo sapiens, UT7).
Regarding `CCONC(=O)c1cnc(Nc2cc(C)nc(C)n2)cc1Nc1cc(F)cc(-c2cnccn2)c1OC` [Example 258, 6-((2,6-dimethylpyrimidin-4-yl)amino)-N-ethoxy-4-((5-fluoro-2-methoxy-3-(pyrazin-2-yl)phenyl)amino)nicotinamide], the IC50 in experiment [1] (Homo sapiens) is more than 10 µM; in experiment [2] (Homo sapiens, U2OS), 0.00215 µM; in experiment [3] (Homo sapiens, UT7), more than 10 µM.

The record behind these values is patent US20240101548A1, “HYDROXAMATE COMPOUND, PREPARATION METHOD THEREFOR AND APPLICATION THEREOF” (SHENZHEN CHIPSCREEN BIOSCIENCES CO., LTD., priority 2020, published 2024).
